The values that follow come from US7342133B2, “Substituted amino compounds as 5-HT/NA uptake inhibitors” (Gruenenthal GmbH, priority 2004, dated 2008).

One data set has as its system 5-HT reuptake. Briefly: Inhibition of 5-HT reuptake in rat brain synaptosomes (P2 fraction, medulla + pons region). The settings on record: for Ki: medulla + pons, Ki from IC50 by Cheng-Prusoff. Type of data set: biochemical. The protocol: (§1) a) Studies of the inhibition of 5-HT and NA reuptake
(§2) In order to be able to carry out these in vitro studies, synaptosomes are freshly isolated from areas of rat brain. A so-called “P2” fraction is used in each case, which is prepared exactly according to the procedure of Gray, E. G. and Whittaker, V. P. (J. Anat. 76, 79-88, 1962). For NA reuptake, these vesicular particles are isolated from the hypothalamus of male rat brains, and for 5-HT reuptake, they are isolated from the medulla +pons region.
(§3) The following characteristic data were determined for the NA and 5-HT reuptake: • NA uptake: Km=0.32±0.11 μM • 5-HT uptake: Km=0.084±0.011 μM (in each case N=4, i.e. mean values ± SEM from 4 independent test series which were carried out in triplicate parallel tests).
(§4) A detailed description of the method can be found in the publication of Frink, M., Hennies, H. H., Englberger, W. et al. (Arzneim.-Forsch./Drug Res. 46 (III), 11, 1029-1036, 1996) (the batch can also be carried out on microtitre plates (250 μl/well) at room temperature).
(§5) In addition to % inhibitions at fixed concentrations of test substance (e.g. 1×10^−6 M or 1×10^−5 M in the batch), dose dependencies were also checked. IC50 values were obtained thereby which can be converted into inhibitor constants (Ki) according to the “Cheng-Prusoff equation” (Cheng, Y. C. and Prusoff, W. H., Biochem. Pharmacol. 22, 3099-3108, 1973). The IC50 values were obtained with the aid of the “Figure P” computer program (Version 6.0, Biosoft, Cambridge, England). Km values were calculated according to Lineweaver, H. and Burk, D. (J. Am. Chem. Soc. 56, 658-666, 1934). The “Ligand” computer program (Version 4, Biosoft, England) was used to show KD values.

The next data set concerns NA reuptake. Description: Inhibition of NA reuptake in rat brain synaptosomes (P2 fraction, hypothalamus). It is filed as biochemical. The conditions noted are these: for Ki: hypothalamus, Ki from IC50 by Cheng-Prusoff. The protocol:
as §1, §2, §3, §4, §5

Data set [1] has as its system formalin-induced nociceptive behaviour (chronic pain component). Description: Analgesic activity in the formalin test in the mouse. Type of data set: in vivo. The protocol:
b) Studies of Analgesic Activity in the Formalin Test in the Mouse The formalin test (Dubuisson, D. and Dennis, S. G., 1977, Pain, 4, 161-174) represents a model for acute and chronic pain. In the studies presented here, the chronic pain component was evaluated. By means of a single formalin injection into the dorsal side of a rear paw, a biphase nociceptive reaction is induced in freely mobile test animals; the reaction is assessed by observing three markedly different behaviour patterns. Formalin is injected subcutaneously in a volume of 20 μl and a concentration of 1% into the dorsal side of the right rear paw of each animal. The specific behavioural changes differing from normal behaviour (score 0), such as lifting (score 1) and shaking of the paw (score 2), as well as biting and licking reactions (score 3), are observed and recorded continuously at 3-minute intervals for 60 minutes after the formalin injection. […] The size of the group was 10 animals (n=10). On the basis of the PR calculations, the activity of the substance was determined in percent as the change relative to a control. The ED50 was determined by means of regression analysis.

Data set [2] deals with phenylquinone-induced writhing reactions. Description: Analgesic activity in the writhing test in the mouse. It is filed as in vivo. The protocol:
c) Studies of Analgesic Activity in the Writhing Test in the Mouse
The writhing test in the mouse is a modification of the method according to Hendershot L C, Forsaith, J, J Pharmacol Exp Ther 125: 237-240 (1959).
0.3 ml/animal of a 0.02% aqueous phenylquinone solution, with the addition of 5% ethanol, is administered intraperitoneally to the animals as pain stimulus. This solution is administered 30 minutes (test substance p.o.) or 10 minutes (test substance i.v.) after administration of the test substance. The pain-induced stretching movements (so-called writhing reactions=straightening of the body with extension of the rear extremities) are recorded 5 to 20 minutes after the administration of phenylquinone. The animals treated with the test substance are compared with a control group that received physiological saline. Size of the group n=10.
On the technique in general: An intraperitoneal irritant provokes the stretching counted in writhing tests.

In data set [3] the test system is duration of the phase of immobility. Briefly: Antidepressant activity in the forced swimming test (Porsolt test) in the mouse. It is filed as in vivo. The conditions noted are these: for Relative duration of the phase of immobility versus control: i.p. The protocol: d) Study of Antidepressant Activity in the Forced Swimming Test (Porsolt Test) in the Mouse The studies to determine the antidepressant activity of the compounds of formula I according to the invention were carried out in the forced swimming test (Porsolt test) in the mouse (Porsolt, R. et al., Arch. Int. Pharmacodyn. Vol. 229, p. 327-336 (1977)). Male mice (20-25 g body weight) were placed individually for a period of 6 minutes into a flat water tank from which they were unable to escape and accordingly were forced to swim. After some time, the animals gave up their attempts to swim and entered a phase of immobility. In the interval of from 2 to 6 minutes after introduction of the animal, the duration of the phase of immobility was determined. Test substance and vehicle groups each comprise 10 animals. Changes in the duration of the phase of immobility are stated relative to the vehicle control. Antidepressants induce a shortening of the phase of immobility.

Take `CN(C)CC1=C(Cc2ccc(Cl)cc2)CCCCC1.Cl` [Example 1, [2-(4-Chlorobenzyl)-cyclohept-1-enylmethyl]-dimethylamine; hydrochloride]: the “Inhibition of 5-HT reuptake (in words)” value in the data set with 5-HT reuptake is “dose-dependent inhibition”. For the same molecule, the Ki (as a rule, the dissociation constant of the complex between target and ligand, obtained from inhibition or displacement) stood at 3 nM on 5-HT reuptake and 30 nM at NA reuptake. The “Inhibition of NA reuptake (in words)” value with NA reuptake is recorded as “dose-dependent inhibition”. Besides, in data set [1], the “Inhibition of the nociceptive behaviour, formalin test (in words)” value was “dose-dependent inhibition”. Also, the ED50 (commonly the midpoint of the dose-response relation) came out at 4.71 mg/kg in data set [1] (iv, chronic pain component) and 3.04 mg/kg in data set [2] (i.v., phenylquinone i.p.). In data set [2], the “Inhibition of the nociceptive behaviour, writhing test (in words)” value is on record as “dose-dependent inhibition”. Also, the “Shortening of the phase of immobility, forced swimming test (in words)” value in data set [3] was “significant shortening of the phase of immobility”. Also, the “Relative duration of the phase of immobility versus control” value is “+9%” in data set [3] (10 mg/kg); −34% in data set [3] (21.5 mg/kg); −67%*** in data set [3] (31.6 mg/kg, ***p < 0.001); −76%*** in data set [3] (46.4 mg/kg, ***p < 0.001).
`CN(C)CC1=C(Cc2ccc(Cl)cc2)CCCCCC1.Cl` [Example 2b, [2-(4-chlorobenzyl)-cyclooct-1enylmethyl]-dimethylamine; hydrochloride]: the melting point (commonly the temperature, or range, at which the solid turns liquid) fell in the range of 234 to 237 °C. In addition, in the data set on 5-HT reuptake, the “Inhibition of 5-HT reuptake (in words)” value is recorded as “dose-dependent inhibition” and the Ki was 30 nM. Moreover, in the data set on NA reuptake, the “Inhibition of NA reuptake (in words)” value is reported as “dose-dependent inhibition” and the Ki was 340 nM.
Molecule `CN(C)CC1=C(Cc2ccc(Cl)cc2)CCC1.Cl` showed a melting point of 191 °C.
